Test results taken from paper PMC4303209, “A novel phosphatidylinositol 3-kinase (PI3K) inhibitor directs a potent FOXO-dependent, p53-independent cell cycle arrest phenotype characterized by the differential induction of a subset of FOXO-regulated genes” (Breast Cancer Research : BCR, 2014).

System: MCF-7 breast cancer cells
Assay: Microarray gene expression analysis (Agilent whole human genome 4 x 44K; compound vs DMSO, LIMMA log2 fold change)
Format: cell-based
Settings: Apoptosis genes

For `Cn1ncc2c(N3CCOCC3)nc(-c3cccc(O)c3)nc21` [ETP-45658], the “TBX1 log2FC” value (Gene 6899) was -0.252, the “TBX5 log2FC” value (Gene 6910) was 0.253 and the “TBX3 log2FC” value (Gene 6926) was -0.702. The “TCF7L2 log2FC” value (Gene 6934) was 0.069, the “TDGF1 log2FC” value (Gene 6997) was -0.229 and the “PRDX2 log2FC” value (Gene 7001) was 0.238. The “TERF1 log2FC” value (Gene 7013) was 0.607, the “TERT log2FC” value (Gene 7015) was -0.174 and the “TFAP2A log2FC” value (Gene 7020) was -0.422. For the same compound, the “TFAP2B log2FC” value (Gene 7021) was -0.228, the “TFAP4 log2FC” value (Gene 7023) was 0.268 and the “TGFA log2FC” value (Gene 7039) was -0.305. For the same compound, the “TGFB1 log2FC” value (Gene 7040) was -0.640, the “TGFB3 log2FC” value (Gene 7043) was 0.297 and the “TGFBR1 log2FC” value (Gene 7046) was 0.107. For the same compound, the “TGFBR2 log2FC” value (Gene 7048) was 0.848, the “TGM2 log2FC” value (Gene 7052) was -0.663 and the “THBS1 log2FC” value (Gene 7057) was -0.941. The “THRA log2FC” value (Gene 7067) was 0.422, the “TIA1 log2FC” value (Gene 7072) was 0.264 and the “TIAL1 log2FC” value (Gene 7073) was 0.293. For the same compound, the “TIAM1 log2FC” value (Gene 7074) was -0.410, the “TIMP1 log2FC” value (Gene 7076) was -0.529 and the “TJP1 log2FC” value (Gene 7082) was 0.201. For the same compound, the “TLE1 log2FC” value (Gene 7088) was 0.258, the “TLR2 log2FC” value (Gene 7097) was -0.108 and the “TLR3 log2FC” value (Gene 7098) was 0.853. For the same compound, the “NR2E1 log2FC” value (Gene 7101) was -0.094, the “TMF1 log2FC” value (Gene 7110) was 0.560 and the “TNF log2FC” value (Gene 7124) was -1.647. For the same compound, the “TNFAIP1 log2FC” value (Gene 7126) was -0.176, the “TNFAIP3 log2FC” value (Gene 7128) was -0.659 and the “TNFRSF1A log2FC” value (Gene 7132) was -1.037. The “TOP2A log2FC” value (Gene 7153) was 0.987, the “TP53 log2FC” value (Gene 7157) was -0.193 and the “TP53BP2 log2FC” value (Gene 7159) was 0.300. The “TP73 log2FC” value (Gene 7161) was -0.503, the “TPD52L1 log2FC” value (Gene 7164) was 0.379 and the “TPT1 log2FC” value (Gene 7178) was 0.799. The “HSP90B1 log2FC” value (Gene 7184) was 0.583, the “TRAF1 log2FC” value (Gene 7185) was -0.690 and the “TRAF3 log2FC” value (Gene 7187) was -0.696. For the same compound, the “TRAF5 log2FC” value (Gene 7188) was 0.441, the “TRAF6 log2FC” value (Gene 7189) was -0.110 and the “TRIO log2FC” value (Gene 7204) was 0.329. For the same compound, the “TRPS1 log2FC” value (Gene 7227) was 0.712, the “PHLDA2 log2FC” value (Gene 7262) was -2.933 and the “TWIST1 log2FC” value (Gene 7291) was 0.401. The “TNFRSF4 log2FC” value (Gene 7293) was -0.061, the “TYRO3 log2FC” value (Gene 7301) was -0.084 and the “UBA52 log2FC” value (Gene 7311) was 0.322. For the same compound, the “UBB log2FC” value (Gene 7314) was 0.069, the “UBC log2FC” value (Gene 7316) was 0.294 and the “UBE2B log2FC” value (Gene 7320) was 0.582. For the same compound, the “UBE2D3 log2FC” value (Gene 7323) was -0.312, the “UCN log2FC” value (Gene 7349) was 0.210 and the “UCP2 log2FC” value (Gene 7351) was 0.279. The “UNG log2FC” value (Gene 7374) was -0.235, the “VAV1 log2FC” value (Gene 7409) was 0.573 and the “VAV2 log2FC” value (Gene 7410) was 0.047. For the same compound, the “VCP log2FC” value (Gene 7415) was -0.341, the “VDAC1 log2FC” value (Gene 7416) was -0.389 and the “VDR log2FC” value (Gene 7421) was -0.801. The “VEGFB log2FC” value (Gene 7423) was -0.219, the “VHL log2FC” value (Gene 7428) was 0.156 and the “WFS1 log2FC” value (Gene 7466) was -0.738. For the same compound, the “WNT5A log2FC” value (Gene 7474) was 0.075, the “WNT7A log2FC” value (Gene 7476) was -0.084 and the “WNT7B log2FC” value (Gene 7477) was -0.527. The “WNT10B log2FC” value (Gene 7480) was -0.451, the “WNT11 log2FC” value (Gene 7481) was -0.151 and the “WNT9A log2FC” value (Gene 7483) was 0.073. The “WRN log2FC” value (Gene 7486) was 0.441, the “WT1 log2FC” value (Gene 7490) was -0.635 and the “XDH log2FC” value (Gene 7498) was 0.061. The “XPA log2FC” value (Gene 7507) was 0.451, the “XRCC2 log2FC” value (Gene 7516) was -0.596 and the “XRCC4 log2FC” value (Gene 7518) was 0.589. For the same compound, the “YWHAB log2FC” value (Gene 7529) was 0.414, the “YWHAE log2FC” value (Gene 7531) was 0.239 and the “YWHAG log2FC” value (Gene 7532) was -0.492. The “YWHAH log2FC” value (Gene 7533) was -0.469, the “YWHAZ log2FC” value (Gene 7534) was -0.139 and the “ZNF16 log2FC” value (Gene 7564) was 0.343. For the same compound, the “PCGF2 log2FC” value (Gene 7703) was -0.266, the “DAP3 log2FC” value (Gene 7818) was 0.449 and the “BTG2 log2FC” value (Gene 7832) was -1.109. For the same compound, the “PAX8 log2FC” value (Gene 7849) was 0.414, the “FZD5 log2FC” value (Gene 7855) was -0.562 and the “SCG2 log2FC” value (Gene 7857) was 0.617. The “NR4A3 log2FC” value (Gene 8013) was 0.735, the “LHX3 log2FC” value (Gene 8022) was 0.038 and the “RASSF7 log2FC” value (Gene 8045) was 0.255. The “FOSL1 log2FC” value (Gene 8061) was -2.502, the “CUL5 log2FC” value (Gene 8065) was -0.432 and the “FXR1 log2FC” value (Gene 8087) was 0.876. The “HMGA2 log2FC” value (Gene 8091) was -1.656, the “GDF5 log2FC” value (Gene 8200) was -0.419 and the “RBM10 log2FC” value (Gene 8241) was -0.320. For the same compound, the “AXIN1 log2FC” value (Gene 8312) was 0.481, the “NME5 log2FC” value (Gene 8382) was 0.189 and the “PLA2G6 log2FC” value (Gene 8398) was -0.247. The “SRPX log2FC” value (Gene 8406) was 0.110, the “STK24 log2FC” value (Gene 8428) was -0.121 and the “NSMAF log2FC” value (Gene 8439) was 0.488. For the same compound, the “DYRK2 log2FC” value (Gene 8445) was -0.546, the “CUL4A log2FC” value (Gene 8451) was 0.552 and the “CUL3 log2FC” value (Gene 8452) was 0.137. For the same compound, the “CUL2 log2FC” value (Gene 8453) was 0.454, the “CUL1 log2FC” value (Gene 8454) was 0.479 and the “KLF11 log2FC” value (Gene 8462) was 1.337. The “OGT log2FC” value (Gene 8473) was 0.232, the “IKBKG log2FC” value (Gene 8517) was -0.398 and the “CBX4 log2FC” value (Gene 8535) was -0.217. The “API5 log2FC” value (Gene 8539) was -0.382, the “YARS log2FC” value (Gene 8565) was -0.265 and the “MADD log2FC” value (Gene 8567) was 0.423. The “UNC5C log2FC” value (Gene 8633) was -0.082, the “AKR1C3 log2FC” value (Gene 8644) was 0.209 and the “NCOA1 log2FC” value (Gene 8648) was 0.390. The “DYNLL1 log2FC” value (Gene 8655) was -0.944, the “IRS2 log2FC” value (Gene 8660) was 0.732 and the “BECN1 log2FC” value (Gene 8678) was 0.486. For the same compound, the “PEA15 log2FC” value (Gene 8682) was 0.593, the “HYAL2 log2FC” value (Gene 8692) was -0.387 and the “TRADD log2FC” value (Gene 8717) was 0.340. For the same compound, the “TNFRSF25 log2FC” value (Gene 8718) was -0.499, the “RIPK1 log2FC” value (Gene 8737) was -0.187 and the “CRADD log2FC” value (Gene 8738) was -0.101. For the same compound, the “HRK log2FC” value (Gene 8739) was 0.385, the “RIPK2 log2FC” value (Gene 8767) was 0.592 and the “TNFRSF6B log2FC” value (Gene 8771) was -1.094. The “FADD log2FC” value (Gene 8772) was -0.522, the “TNFRSF18 log2FC” value (Gene 8784) was -0.321 and the “TNFRSF10D log2FC” value (Gene 8793) was -0.444. The “TNFRSF10B log2FC” value (Gene 8795) was -0.935, the “TNFRSF10A log2FC” value (Gene 8797) was -0.657 and the “TRIM24 log2FC” value (Gene 8805) was 0.836. The “NRP1 log2FC” value (Gene 8829) was -0.517, the “SYNGAP1 log2FC” value (Gene 8831) was -0.373 and the “SOCS2 log2FC” value (Gene 8835) was 0.750. The “CFLAR log2FC” value (Gene 8837) was -0.499, the “HDAC3 log2FC” value (Gene 8841) was -0.217 and the “ALKBH1 log2FC” value (Gene 8846) was -0.105. For the same compound, the “TSC22D1 log2FC” value (Gene 8848) was 0.485, the “CDK5R1 log2FC” value (Gene 8851) was -0.154 and the “ALDH1A2 log2FC” value (Gene 8854) was 0.218. For the same compound, the “IER3 log2FC” value (Gene 8870) was -1.789, the “ARHGEF7 log2FC” value (Gene 8874) was 0.162 and the “SPHK1 log2FC” value (Gene 8877) was -0.334. The “SQSTM1 log2FC” value (Gene 8878) was 0.788, the “SGPL1 log2FC” value (Gene 8879) was -0.071 and the “TAX1BP1 log2FC” value (Gene 8887) was 1.376. For the same compound, the “BCL10 log2FC” value (Gene 8915) was 0.158, the “MBD4 log2FC” value (Gene 8930) was 0.489 and the “NOL3 log2FC” value (Gene 8996) was 0.514.
